Results on 1 compound are retold here after patent US6867192B1, “Compounds useful in the treatment of inflammatory diseases” (priority 1998, dated 2005).

This series in a line: Solubility in water. The class given is physicochemical.

SMILES strings stand for the structures. Values after ≈ are worked out from the molar mass of the structure shown.

Broadly, the solubility is the dissolved amount per volume that the medium holds. Read a high solubility as a readily soluble substance. On to `Cc1ccccc1OCC(=O)N[C@@H](CC(C)C)C(=O)N[C@@H](Cc1ccc(OC(=O)N2CCC(C(N)=O)CC2)cc1)C(=O)O` [Example 27, (2S)-3-[4-({[4-(Aminocarbonyl)-1-piperidinyl]carbonyl}oxy)phenyl]-2-[((2S)-4-methyl-2-{[2-(2-methylphenoxy)acetyl]amino}pentanoyl)amino]propanoic acid], for which the concentration in solution (solubility) was 10 µg/mL (≈ 16.8 µM).
